# Assay results from patent US10131652B2, “Pyrimidinyloxy benzene derivatives as herbicides” (E. I. DU PONT DE NEMOURS AND COMPANY, priority 2014, dated 2018).
# Columns and labels:
# Assay in all cases: Test D pre-/postemergence plant response
# Assay type in all cases: in vivo
# [1] = test system: winter wheat (Triticum aestivum); conditions: Postemergence; for Wheat plant response rating: scale 0 to 100 (0 no effect, 100 complete control); for Plant response rating, Wheat: scale 0 to 100, 0 no effect, 100 complete control
# Description: (§1) Seeds of plant species selected from blackgrass (Alopecurus myosuroides), Italian ryegrass (Lolium multiflorum), winter wheat (Triticum aestivum), galium (catchweed bedstraw, Galium aparine), corn (Zea mays), large (Lg) crabgrass (Digitaria sanguinalis), giant foxtail (Setaria faberii), johnsongrass (Sorghum halepense), lambsquarters (Chenopodium album), morningglory (Ipomoea coccinea), yellow nutsedge (Cyperus esculentus), pigweed (Amaranthus retroflexus), ragweed (common ragweed, Ambrosia elatior), soybean (Glycine max), bamyardgrass (Echinochloa crus-galli), oilseed rape (Brassica napus), waterhemp (common waterhemp, Amaranthus rudis), and velvetleaf (Abutilon theophrasti) were planted into a blend of loam soil and sand and treated preemergence with test chemicals formulated in a non-phytotoxic solvent mixture which included a surfactant. At the same time, plants selected from these crop and weed species and also kochia (Kochia scoparia), wild oat (Avena fatua), and chickweed (common chickweed, Stellaria media) were planted in pots containing Redi-Earth® planting medium (Scotts Company, 14111 Scottslawn Road, Marysville, Ohio 43041) comprising spaghnum peat moss, vermiculite, wetting agent and starter nutrients and treated with postemergence applications of test chemicals formulated in the same manner. Plants ranged in height from 2 to 18 cm (1- to 4-leaf stage) for postemergence treatments. Treated plants and controls were maintained in a greenhouse for 13 to 15 days, after which time all species were compared to controls and visually evaluated. Plant response ratings, summarized in Table D, are based on a scale of 0 to 100 where 0 is no effect and 100 is complete control. A dash (-) response means no test result.
# [2] = test system: giant foxtail (Setaria faberii); conditions: Postemergence; for Foxtail, Giant plant response rating: scale 0 to 100 (0 no effect, 100 complete control); for Plant response rating, Foxtail, Giant: scale 0 to 100, 0 no effect, 100 complete control
# Description: as §1
# [3] = test system: blackgrass (Alopecurus myosuroides); conditions: Postemergence; for Blackgrass plant response rating: scale 0 to 100 (0 no effect, 100 complete control); for Plant response rating, Blackgrass: scale 0 to 100, 0 no effect, 100 complete control
# Description: as §1
# soybean (Glycine max) = conditions: Postemergence; for Soybean plant response rating: scale 0 to 100 (0 no effect, 100 complete control); for Plant response rating, Soybean: scale 0 to 100, 0 no effect, 100 complete control
# Description: as §1
# [4] = test system: velvetleaf (Abutilon theophrasti); conditions: Postemergence; for Velvetleaf plant response rating: scale 0 to 100 (0 no effect, 100 complete control); for Plant response rating, Velvetleaf: scale 0 to 100, 0 no effect, 100 complete control
# Description: as §1
# [5] = test system: pigweed (Amaranthus retroflexus); conditions: Postemergence; for Pigweed plant response rating: scale 0 to 100 (0 no effect, 100 complete control); for Plant response rating, Pigweed: scale 0 to 100, 0 no effect, 100 complete control
# Description: as §1
# [6] = test system: large (Lg) crabgrass (Digitaria sanguinalis); conditions: Postemergence; for Crabgrass, Large plant response rating: scale 0 to 100 (0 no effect, 100 complete control); for Plant response rating, Crabgrass, Large: scale 0 to 100, 0 no effect, 100 complete control
# Description: as §1
# [7] = test system: lambsquarters (Chenopodium album); conditions: Postemergence; for Lambsquarters plant response rating: scale 0 to 100 (0 no effect, 100 complete control); for Plant response rating, Lambsquarters: scale 0 to 100, 0 no effect, 100 complete control
# Description: as §1
# [8] = test system: oilseed rape (Brassica napus); conditions: Postemergence; for Oilseed Rape plant response rating: scale 0 to 100 (0 no effect, 100 complete control); for Plant response rating, Oilseed Rape: scale 0 to 100, 0 no effect, 100 complete control
# Description: as §1
# [9] = test system: galium (catchweed bedstraw, Galium aparine); conditions: Postemergence; for Galium plant response rating: scale 0 to 100 (0 no effect, 100 complete control); for Plant response rating, Galium: scale 0 to 100, 0 no effect, 100 complete control
# Description: as §1
# [10] = test system: Italian ryegrass (Lolium multiflorum); conditions: Postemergence; for Ryegrass, Italian plant response rating: scale 0 to 100 (0 no effect, 100 complete control); for Plant response rating, Ryegrass, Italian: scale 0 to 100, 0 no effect, 100 complete control
# Description: as §1
# [11] = test system: ragweed (common ragweed, Ambrosia elatior); conditions: Postemergence; for Ragweed plant response rating: scale 0 to 100 (0 no effect, 100 complete control); for Plant response rating, Ragweed: scale 0 to 100, 0 no effect, 100 complete control
# Description: as §1
# [12] = test system: morningglory (Ipomoea coccinea); conditions: Postemergence; for Morningglory plant response rating: scale 0 to 100 (0 no effect, 100 complete control); for Plant response rating, Morningglory: scale 0 to 100, 0 no effect, 100 complete control
# Description: as §1
# [13] = test system: yellow nutsedge (Cyperus esculentus); conditions: Postemergence; for Nutsedge, Yellow plant response rating: scale 0 to 100 (0 no effect, 100 complete control); for Plant response rating, Nutsedge, Yellow: scale 0 to 100, 0 no effect, 100 complete control
# Description: as §1
# [14] = test system: waterhemp (common waterhemp, Amaranthus rudis); conditions: Postemergence; for Waterhemp plant response rating: scale 0 to 100 (0 no effect, 100 complete control); for Plant response rating, Waterhemp: scale 0 to 100, 0 no effect, 100 complete control
# Description: as §1
# [15] = test system: johnsongrass (Sorghum halepense); conditions: Postemergence; for Johnsongrass plant response rating: scale 0 to 100 (0 no effect, 100 complete control); for Plant response rating, Johnsongrass: scale 0 to 100, 0 no effect, 100 complete control
# Description: as §1
# [16] = test system: barnyardgrass (Echinochloa crus-galli); conditions: Postemergence; for Barnyardgrass plant response rating: scale 0 to 100 (0 no effect, 100 complete control); for Plant response rating, Barnyardgrass: scale 0 to 100, 0 no effect, 100 complete control
# Description: as §1
# corn (Zea mays) = conditions: Postemergence; for Corn plant response rating: scale 0 to 100 (0 no effect, 100 complete control); for Plant response rating, Corn: scale 0 to 100, 0 no effect, 100 complete control
# Description: as §1
smiles,measurement,setting,value
Fc1ccc(Oc2ncc(Cl)cn2)c(-c2cc(C(F)F)on2)c1Cl [Compound 96],Wheat plant response rating,[1]; 16 g ai/ha,0
same,Wheat plant response rating,[1]; 31 g ai/ha,0
same,"Plant response rating, Wheat",[1]; 62 g ai/ha,0
same,"Plant response rating, Wheat",[1]; 125 g ai/ha,10
same,"Foxtail, Giant plant response rating",[2]; 16 g ai/ha,0
same,"Foxtail, Giant plant response rating",[2]; 31 g ai/ha,5
same,"Plant response rating, Foxtail, Giant",[2]; 62 g ai/ha,10
same,"Plant response rating, Foxtail, Giant",[2]; 125 g ai/ha,10
same,Blackgrass plant response rating,[3]; 16 g ai/ha,0
same,Blackgrass plant response rating,[3]; 31 g ai/ha,10
same,"Plant response rating, Blackgrass",[3]; 62 g ai/ha,10
same,"Plant response rating, Blackgrass",[3]; 125 g ai/ha,20
same,Soybean plant response rating,soybean (Glycine max); 16 g ai/ha,15
same,Soybean plant response rating,soybean (Glycine max); 31 g ai/ha,50
same,"Plant response rating, Soybean",soybean (Glycine max); 62 g ai/ha,55
same,"Plant response rating, Soybean",soybean (Glycine max); 125 g ai/ha,35
same,Velvetleaf plant response rating,[4]; 16 g ai/ha,20
same,Velvetleaf plant response rating,[4]; 31 g ai/ha,35
same,"Plant response rating, Velvetleaf",[4]; 62 g ai/ha,35
same,"Plant response rating, Velvetleaf",[4]; 125 g ai/ha,35
same,Pigweed plant response rating,[5]; 16 g ai/ha,98
same,Pigweed plant response rating,[5]; 31 g ai/ha,95
same,"Plant response rating, Pigweed",[5]; 62 g ai/ha,98
same,"Plant response rating, Pigweed",[5]; 125 g ai/ha,98
same,"Crabgrass, Large plant response rating",[6]; 16 g ai/ha,5
same,"Crabgrass, Large plant response rating",[6]; 31 g ai/ha,5
same,"Plant response rating, Crabgrass, Large",[6]; 62 g ai/ha,5
same,"Plant response rating, Crabgrass, Large",[6]; 125 g ai/ha,10
same,Lambsquarters plant response rating,[7]; 16 g ai/ha,65
same,Lambsquarters plant response rating,[7]; 31 g ai/ha,65
same,"Plant response rating, Lambsquarters",[7]; 62 g ai/ha,90
same,"Plant response rating, Lambsquarters",[7]; 125 g ai/ha,95
same,Oilseed Rape plant response rating,[8]; 16 g ai/ha,40
same,Oilseed Rape plant response rating,[8]; 31 g ai/ha,45
same,"Plant response rating, Oilseed Rape",[8]; 62 g ai/ha,65
same,"Plant response rating, Oilseed Rape",[8]; 125 g ai/ha,65
same,Galium plant response rating,[9]; 16 g ai/ha,70
same,Galium plant response rating,[9]; 31 g ai/ha,90
same,"Plant response rating, Galium",[9]; 62 g ai/ha,80
same,"Plant response rating, Galium",[9]; 125 g ai/ha,98
same,"Ryegrass, Italian plant response rating",[10]; 16 g ai/ha,0
same,"Ryegrass, Italian plant response rating",[10]; 31 g ai/ha,5
same,"Plant response rating, Ryegrass, Italian",[10]; 62 g ai/ha,10
same,"Plant response rating, Ryegrass, Italian",[10]; 125 g ai/ha,10
same,Ragweed plant response rating,[11]; 16 g ai/ha,0
same,Ragweed plant response rating,[11]; 31 g ai/ha,10
same,"Plant response rating, Ragweed",[11]; 62 g ai/ha,10
same,"Plant response rating, Ragweed",[11]; 125 g ai/ha,40
same,Morningglory plant response rating,[12]; 16 g ai/ha,85
same,Morningglory plant response rating,[12]; 31 g ai/ha,40
same,"Plant response rating, Morningglory",[12]; 62 g ai/ha,40
same,"Plant response rating, Morningglory",[12]; 125 g ai/ha,30
same,"Nutsedge, Yellow plant response rating",[13]; 16 g ai/ha,0
same,"Nutsedge, Yellow plant response rating",[13]; 31 g ai/ha,5
same,"Plant response rating, Nutsedge, Yellow",[13]; 62 g ai/ha,5
same,"Plant response rating, Nutsedge, Yellow",[13]; 125 g ai/ha,5
same,Waterhemp plant response rating,[14]; 16 g ai/ha,85
same,Waterhemp plant response rating,[14]; 31 g ai/ha,95
same,"Plant response rating, Waterhemp",[14]; 62 g ai/ha,98
same,"Plant response rating, Waterhemp",[14]; 125 g ai/ha,100
same,Johnsongrass plant response rating,[15]; 16 g ai/ha,0
same,Johnsongrass plant response rating,[15]; 31 g ai/ha,0
same,"Plant response rating, Johnsongrass",[15]; 62 g ai/ha,5
same,"Plant response rating, Johnsongrass",[15]; 125 g ai/ha,10
same,Barnyardgrass plant response rating,[16]; 16 g ai/ha,0
same,Barnyardgrass plant response rating,[16]; 31 g ai/ha,0
same,"Plant response rating, Barnyardgrass",[16]; 62 g ai/ha,5
same,"Plant response rating, Barnyardgrass",[16]; 125 g ai/ha,5
same,Corn plant response rating,corn (Zea mays); 16 g ai/ha,5
same,Corn plant response rating,corn (Zea mays); 31 g ai/ha,15
same,"Plant response rating, Corn",corn (Zea mays); 62 g ai/ha,5
same,"Plant response rating, Corn",corn (Zea mays); 125 g ai/ha,5
